Experimental findings from patent US10723699B2 (Hyundai Pharm Co., Ltd., priority 2015, dated 2020) are described below.

Series [1] concerns the target T1, CYP2D6 (Homo sapiens, UniProt P10635).
T1 construct: purchased Invitrogen P2862
Description: CYP inhibition assay (Invitrogen P2862 kit). The series is classed as in vitro ADME. The note with it: 10 µM. An excerpt:
CYP enzymes play a major role in the metabolism of drugs. Depending on the inhibition activity of the CYP enzymes, the dose of the drugs and toxicity due to the co-administration of other drugs can be predicted. Therefore, we have measured the inhibitory activity for CYP3A4, CYP2C9, CYP1A2, CYP2D6 and CYP2C19 enzymes present in the body using the compounds of the present invention. Invitrogen P2862 kit was used for CYP2D6 inhibition assay, and BD GENTEST (459100, 459300, 459400, 459500) kits were used for CYP1A2, CYP2C9, CYP2C19 and CYP3A4 inhibition assay. In case of Invitrogen kit, the test materials were diluted in distilled water into 2.5× of the final test concentration.
P450 BACULOSOMES® reagent and regeneration device (100×) provided by the Invitrogen kit were diluted in the Vivid® reaction buffer (2×) into the appropriate concentration for the type of CYP450. After mixing 80 μl of the 2.5× test material and 100 μl of the mixture of the diluted P450 BACULOSOMES® reagent in U-bottom 96-well plate, the resulting mixture was pre-incubated for 20 minutes. Vivid® CYP450 substrate and NADP+ (100×) were diluted in the Vivid® CYP450 reaction buffer (2×) into the appropriate concentration for the types of CYP450 and the substrates. After completion of the pre-incubation, 20/l of the substrate-NADP (nicotinamide adenine dinucleotide phosphate) mixture was added, and then incubated for 1 hour. After completion of the reaction, the reactants were transferred to the white plates, and fluorescence values were measured using a micro-plate reader (Excitation and absorption wavelengths of CYP2D6 were 400 nm and 502 nm, respectively).
The measured values were converted into the inhibition percent of the test materials as compared to the value of the untreated control, and the results were summarized in Table 5.

For series [2], the system named is NCI-H716 cells. Description: Promotion of glucagon-like peptide-1 (GLP-1) secretion (ELISA). The series is classed as cell-based, human. The note with it: 1, 10, 30 μM. The protocol:
To evaluate an effect of the cyclohexene derivative according to the present invention on promotion of glucagon-like peptide-1 (GLP-1) secretion, experiments were carried out, as follows.
NCI-H716 cells that were human enterocytes were plated on 12 wells at 1×10^6 cells per well. After 48 hours, the cells were starved in serum-free media for 2 hours, and treated with a varying concentration of siptagliptin that was a dipeptidyl peptidase-IV (DPP-IV) inhibitor, and the compounds of Comparative Example 1 (1, 10, 30 μM), Comparative Example 5 (10 μM), Example 48 (1, 10, 30 μM), and Example 291 (1, 10, 30 μM). After an hour, supernatants are recovered to determine an amount of the secreted GLP-1 peptide. The GLP-1 measurement was performed using an enzyme-linked immunosorbant assay (ELISA; Millipore, EGLP-35K), and the amount of the secreted GLP-1 peptide was indicated by the unit “pM”.

Series [3] addresses T2, G protein-coupled receptor 119 (GPR-119) (Mesocricetus auratus, UniProt A0A1U8CD06).
T2 construct: hamster-derived β-cells containing G protein-coupled receptor 119 (GPR-119), HIT-T15 cells; host or cells: HIT-T15 (hamster pancreatic β-cells)
T2 sequence (A0A1U8CD06 1-334): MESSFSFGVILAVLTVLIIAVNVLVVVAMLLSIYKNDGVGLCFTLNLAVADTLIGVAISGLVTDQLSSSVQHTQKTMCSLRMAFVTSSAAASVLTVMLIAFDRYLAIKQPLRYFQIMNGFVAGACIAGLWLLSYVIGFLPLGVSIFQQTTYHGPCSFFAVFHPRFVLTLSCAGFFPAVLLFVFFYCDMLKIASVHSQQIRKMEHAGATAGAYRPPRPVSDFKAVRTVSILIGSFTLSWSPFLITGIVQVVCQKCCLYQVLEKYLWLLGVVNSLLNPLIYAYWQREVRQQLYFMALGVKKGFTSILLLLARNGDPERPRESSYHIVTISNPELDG
The series can be described thus: cAMP activity in HIT-T15 cells (cAMP dynamic kit, FRET). The series is classed as cell-based, hamster. The note with it: 1 hour at 37° C., six concentrations 0.0032 to 10 μM, read-out: EC50. An outline of the steps: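 Hamster HIT-T15 cells (60,000/well) were treated next day with compound at six concentrations, 0.0032–10 μM, for 1 h at 37° C. Cells were then lysed and cAMP measured by competitive HTRF immunoassay (D2-cAMP, cryptate anti-cAMP). Activity was derived as the change in FRET signal relative to DMSO.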

T1 sequence (P10635 whole entry): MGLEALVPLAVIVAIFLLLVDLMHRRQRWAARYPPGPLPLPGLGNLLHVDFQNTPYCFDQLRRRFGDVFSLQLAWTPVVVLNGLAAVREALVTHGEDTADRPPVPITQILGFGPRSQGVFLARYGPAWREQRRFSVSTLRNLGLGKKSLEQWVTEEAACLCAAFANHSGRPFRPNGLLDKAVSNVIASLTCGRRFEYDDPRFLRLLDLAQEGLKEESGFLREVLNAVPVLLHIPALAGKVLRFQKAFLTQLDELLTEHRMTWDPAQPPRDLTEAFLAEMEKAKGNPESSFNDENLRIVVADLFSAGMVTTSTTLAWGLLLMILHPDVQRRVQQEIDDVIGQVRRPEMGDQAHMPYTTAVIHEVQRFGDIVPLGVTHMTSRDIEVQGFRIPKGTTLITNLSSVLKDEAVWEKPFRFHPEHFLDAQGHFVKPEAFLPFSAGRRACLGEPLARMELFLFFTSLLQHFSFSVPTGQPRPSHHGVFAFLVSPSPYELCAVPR

Consider `CCc1cnc(N2CCC(COc3ccc(C4=CCC(C(=O)N5CCC[C@@H]5CO)CC4)cc3)CC2)nc1` (single isomer, unassigned; (-)) [Example 291], for which the “CYP inhibition (% at 10 μM) 2D6” value in series [1] was found to be 2.49%. In addition, the “GLP-1 secretion relative to the untreated group” value in series [2] is listed as “approximately 1.8 times”. Besides, in series [3], the EC50 was determined as 32 nM.

One may read the EC50 as the concentration at which the effect is half-maximal.
